Numbered stars: 1 amine (or outer) side, 2 acyl side, 3 side chain; on linkers, the order of the positions; unused ones are H or OH. Square brackets hold non-standard residues; d marks the D form. Side chains are listed from the residue outwards. Peptide text beside a SMILES is read from it. * marks the point of attachment. C18 diacid = O=C(O)CCCCCCCCCCCCCCCCC(=O)*; αMePhe(2-F) = C[C@](N)(Cc1ccccc1F)C(=O)O; γGlu = O=C(O)[C@H](CCC(=O)[*:2])N[*:1]; αMeY = C[C@](N)(Cc1ccc(O)cc1)C(=O)O; 4Pal = N[C@@H](Cc1ccncc1)C(=O)O; αMeL = CC(C)C[C@](C)(N)C(=O)O; Orn = NCCC[C@H](N)C(=O)O; AEEA = NCCOCCOCC(=O)O; Aib = CC(C)(N)C(=O)O
What was measured:
human Gcg receptor = target: T1, human Gcg receptor (Homo sapiens, UniProt P47871); assay: [125I]-Glucagon binding (SPA), human Gcg receptor; details: read-out: hGLcgR Ki, nM (SEM, n)
T1 construct: expressed in transfected cells; crude membranes
T1 sequence (P47871 26-477): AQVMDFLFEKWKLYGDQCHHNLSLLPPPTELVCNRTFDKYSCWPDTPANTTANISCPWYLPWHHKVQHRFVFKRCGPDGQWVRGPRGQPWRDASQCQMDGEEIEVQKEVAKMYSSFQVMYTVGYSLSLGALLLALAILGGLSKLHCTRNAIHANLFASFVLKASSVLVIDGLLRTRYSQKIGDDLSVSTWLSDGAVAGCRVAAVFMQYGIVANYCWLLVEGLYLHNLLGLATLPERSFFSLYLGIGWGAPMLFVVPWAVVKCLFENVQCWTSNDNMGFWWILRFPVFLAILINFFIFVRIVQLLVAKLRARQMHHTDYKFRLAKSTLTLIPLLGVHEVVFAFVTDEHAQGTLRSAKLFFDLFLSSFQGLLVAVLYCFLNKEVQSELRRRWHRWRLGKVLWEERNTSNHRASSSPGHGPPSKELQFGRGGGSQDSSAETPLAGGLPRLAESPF
Outline: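 Cell pellets were lysed in hypotonic Tris buffer, pH 7.5, homogenized, and spun at low then high speed to give crude membranes. Ki was derived from the fitted IC50.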

[1] = target: human GLP-1 receptor (GLP-1R) (Homo sapiens, UniProt P43220); assay: cAMP pharmacological functional assay in presence of casein, hGLP-1R; assay type: cell-based; details: HEK293 cells expressing hGLP-1R, 0.1% Casein, geometric mean; read-out: hGLP1R cAMP Rel EC50 nM (SEM, n)
human GLP-1 receptor (GLP-1R), sequence (P43220 24-463): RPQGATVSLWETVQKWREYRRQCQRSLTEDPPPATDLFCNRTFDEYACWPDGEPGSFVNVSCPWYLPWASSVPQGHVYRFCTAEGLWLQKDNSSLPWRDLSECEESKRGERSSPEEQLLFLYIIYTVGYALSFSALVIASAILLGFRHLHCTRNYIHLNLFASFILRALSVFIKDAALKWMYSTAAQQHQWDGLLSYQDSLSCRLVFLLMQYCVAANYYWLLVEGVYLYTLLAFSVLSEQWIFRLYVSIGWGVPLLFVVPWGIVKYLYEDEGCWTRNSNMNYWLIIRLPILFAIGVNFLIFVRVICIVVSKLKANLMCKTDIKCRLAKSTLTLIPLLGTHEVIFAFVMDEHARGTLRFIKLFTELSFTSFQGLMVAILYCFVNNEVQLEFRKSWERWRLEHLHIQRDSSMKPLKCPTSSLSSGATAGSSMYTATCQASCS

human GLP-1R = human GLP-1R (Homo sapiens, UniProt P43220); assay: [125I]-GLP-1 binding (SPA), human GLP-1 receptor; set-up: expressed in transfected cells; crude membranes; details: read-out: hGLP1R Ki, (nM) (SEM, n)
human GLP-1R, sequence (P43220 24-463): as above
Outline: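 Membranes: hypotonic lysis (50 mM Tris HCl, pH 7.5, protease inhibitors), Potter-Elvehjem homogenization, high-speed pellet (35000×g 1 h or 25000×g 30 min, 4° C.). Buffer: 25 mM HEPES pH 7.4, 2.5 mM CaCl2, 1 mM MgCl2. Four-parameter IC50 fit; Ki as geometric mean ± SEM.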

[2] = target: T2, gastric inhibitory peptide receptor (GIPR) (Homo sapiens, UniProt P48546); assay: cAMP pharmacological functional assay in presence of casein, hGIPR; assay type: cell-based; details: HEK293 cells expressing hGIPR, 0.1% Casein, geometric mean; read-out: hGIPR cAMP Rel EC50 nM (SEM, n)
T2 sequence (P48546 22-466): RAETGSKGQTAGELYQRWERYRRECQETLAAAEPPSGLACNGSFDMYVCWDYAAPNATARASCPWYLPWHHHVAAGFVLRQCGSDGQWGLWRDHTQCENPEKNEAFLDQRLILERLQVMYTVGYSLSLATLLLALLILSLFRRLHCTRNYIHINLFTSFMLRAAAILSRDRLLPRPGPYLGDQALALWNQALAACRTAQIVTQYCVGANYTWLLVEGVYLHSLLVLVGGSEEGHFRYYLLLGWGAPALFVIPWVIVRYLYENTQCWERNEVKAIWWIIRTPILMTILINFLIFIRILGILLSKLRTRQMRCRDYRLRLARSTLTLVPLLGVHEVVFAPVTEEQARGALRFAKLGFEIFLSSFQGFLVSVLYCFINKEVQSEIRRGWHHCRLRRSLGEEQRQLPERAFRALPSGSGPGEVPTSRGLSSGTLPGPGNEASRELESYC

human GIP receptor = target: T3, human GIP receptor (Homo sapiens, UniProt P48546); assay: [125I]-GIP binding (SPA), human GIP receptor; details: read-out: hGIPR Ki, nM (SEM, n)
T3 construct: expressed in transfected cells; crude membranes
T3 sequence (P48546 22-466): T2 sequence (P48546 22-466)

Compound | Ki (human Gcg receptor) [nM] | EC50 [1] [nM] | Ki (human GLP-1R) [nM] | EC50 [2] [nM] | Ki (human GIP receptor) [nM]
CC[C@H](C)[C@H](NC(=O)[C@H](CC(C)C)NC(=O)[C@](C)(Cc1ccc(O)cc1)NC(=O)[C@@H](CCC(=O)O)NC(=O)[C@@H](NC(=O)[C@H](Cc1ccccc1)NC(=O)[C@H](CCC(=O)O)NC(=O)C(C)(C)NC(=O)[C@H](CCC(N)=O)NC(=O)[C@H](C)NC(=O)[C@H](CCCCNC(=O)COCCOCCNC(=O)COCCOCCNC(=O)CC[C@H](NC(=O)CCCCCCCCCCCCCCCCC(=O)O)C(=O)O)NC(=O)[C@H](CCCN)NC(=O)[C@H](CC(=O)O)NC(=O)[C@H](CC(C)C)NC(=O)[C@](C)(CC(C)C)NC(=O)[C@@H](NC(=O)[C@H](CO)NC(=O)[C@H](C)NC(=O)[C@H](CC(=O)O)NC(=O)[C@H](CO)NC(=O)[C@@H](NC(=O)[C@](C)(Cc1ccccc1F)NC(=O)[C@@H](NC(=O)CNC(=O)[C@H](CCC(=O)O)NC(=O)C(C)(C)NC(=O)[C@@H](N)Cc1ccc(O)cc1)[C@@H](C)O)[C@@H](C)O)[C@@H](C)CC)[C@@H](C)CC)C(=O)N[C@@H](CCC(=O)O)C(=O)NCC(=O)NCC(=O)N1CCC[C@H]1C(=O)N[C@@H](CO)C(=O)N[C@@H](CO)C(=O)NCC(=O)N[C@@H](C)C(=O)N1CCC[C@H]1C(=O)N1CCC[C@H]1C(=O)N1CCC[C@H]1C(=O)N[C@@H](CO)C(N)=O [Example 237] (H-Y[Aib]EGT[αMePhe(2-F)]TSDASI[αMeL]LD[Orn]K([AEEA-AEEA-γGlu-C18 diacid])AQ[Aib]EFI[dE][αMeY]LIEGGPSSGAPPPS-NH2) | > 1060 | 0.0187 | 1.04 | 0.0883 | 0.131
CC[C@H](C)[C@H](NC(=O)[C@H](CC(C)C)NC(=O)[C@](C)(Cc1ccc(O)cc1)NC(=O)[C@@H](CCC(=O)O)NC(=O)[C@@H](NC(=O)[C@H](Cc1ccccc1)NC(=O)[C@H](CCC(=O)O)NC(=O)C(C)(C)NC(=O)[C@H](CCC(N)=O)NC(=O)[C@H](C)NC(=O)[C@H](CCCCNC(=O)COCCOCCNC(=O)COCCOCCNC(=O)CC[C@H](NC(=O)CCCCCCCCCCCCCCCCC(=O)O)C(=O)O)NC(=O)[C@H](CCCN)NC(=O)[C@H](CC(=O)O)NC(=O)[C@H](CC(C)C)NC(=O)[C@](C)(CC(C)C)NC(=O)[C@@H](NC(=O)[C@H](CO)NC(=O)[C@H](CC(C)C)NC(=O)[C@H](CC(=O)O)NC(=O)[C@H](CO)NC(=O)[C@@H](NC(=O)[C@](C)(Cc1ccccc1F)NC(=O)[C@@H](NC(=O)CNC(=O)[C@H](CCC(=O)O)NC(=O)C(C)(C)NC(=O)[C@@H](N)Cc1ccc(O)cc1)[C@@H](C)O)[C@@H](C)O)[C@@H](C)CC)[C@@H](C)CC)C(=O)N[C@@H](CCC(=O)O)C(=O)NCC(=O)NCC(=O)N1CCC[C@H]1C(=O)N[C@@H](CO)C(=O)N[C@@H](CO)C(=O)NCC(=O)N[C@@H](C)C(=O)N1CCC[C@H]1C(=O)N1CCC[C@H]1C(=O)N1CCC[C@H]1C(=O)N[C@@H](CO)C(N)=O [Example 238] (H-Y[Aib]EGT[αMePhe(2-F)]TSDLSI[αMeL]LD[Orn]K([AEEA-AEEA-γGlu-C18 diacid])AQ[Aib]EFI[dE][αMeY]LIEGGPSSGAPPPS-NH2) | 230 | 0.0241 | 0.548 | 0.0296 | 0.0403
CC[C@H](C)[C@H](NC(=O)[C@H](CC(C)C)NC(=O)[C@](C)(Cc1ccc(O)cc1)NC(=O)[C@@H](CCC(=O)O)NC(=O)[C@@H](NC(=O)[C@H](Cc1ccccc1)NC(=O)[C@@H](NC(=O)C(C)(C)NC(=O)[C@H](CCC(N)=O)NC(=O)[C@H](C)NC(=O)[C@H](CCCCNC(=O)COCCOCCNC(=O)COCCOCCNC(=O)CC[C@H](NC(=O)CCCCCCCCCCCCCCCCC(=O)O)C(=O)O)NC(=O)[C@H](CCCN)NC(=O)[C@H](CC(=O)O)NC(=O)[C@H](CC(C)C)NC(=O)[C@](C)(CC(C)C)NC(=O)[C@@H](NC(=O)[C@H](CO)NC(=O)[C@H](Cc1ccncc1)NC(=O)[C@H](CC(=O)O)NC(=O)[C@H](CO)NC(=O)[C@@H](NC(=O)[C@](C)(Cc1ccccc1F)NC(=O)[C@@H](NC(=O)CNC(=O)[C@H](CCC(=O)O)NC(=O)C(C)(C)NC(=O)[C@@H](N)Cc1ccc(O)cc1)[C@@H](C)O)[C@@H](C)O)[C@@H](C)CC)[C@@H](C)O)[C@@H](C)CC)C(=O)N[C@@H](CCC(=O)O)C(=O)NCC(=O)NCC(=O)N1CCC[C@H]1C(=O)N[C@@H](CO)C(=O)N[C@@H](CO)C(=O)NCC(=O)N[C@@H](C)C(=O)N1CCC[C@H]1C(=O)N1CCC[C@H]1C(=O)N1CCC[C@H]1C(=O)N[C@@H](CO)C(N)=O [Example 239] (H-Y[Aib]EGT[αMePhe(2-F)]TSD[4Pal]SI[αMeL]LD[Orn]K([AEEA-AEEA-γGlu-C18 diacid])AQ[Aib]TFI[dE][αMeY]LIEGGPSSGAPPPS-NH2; N-terminus assumed) | 596 | 0.0376 | 2.71 | 0.0353 | 0.101
CC[C@H](C)[C@H](NC(=O)[C@H](CC(C)C)NC(=O)[C@](C)(Cc1ccc(O)cc1)NC(=O)[C@@H](CCC(=O)O)NC(=O)[C@@H](NC(=O)[C@H](Cc1ccccc1)NC(=O)[C@H](C)NC(=O)C(C)(C)NC(=O)[C@H](CCC(N)=O)NC(=O)[C@H](C)NC(=O)[C@H](CCCCNC(=O)COCCOCCNC(=O)COCCOCCNC(=O)CC[C@H](NC(=O)CCCCCCCCCCCCCCCCC(=O)O)C(=O)O)NC(=O)[C@H](CCCN)NC(=O)[C@H](CC(=O)O)NC(=O)[C@H](CC(C)C)NC(=O)[C@](C)(CC(C)C)NC(=O)[C@@H](NC(=O)[C@H](CO)NC(=O)[C@H](Cc1ccncc1)NC(=O)[C@H](CC(=O)O)NC(=O)[C@H](CO)NC(=O)[C@@H](NC(=O)[C@](C)(Cc1ccccc1F)NC(=O)[C@@H](NC(=O)CNC(=O)[C@H](CCC(=O)O)NC(=O)C(C)(C)NC(=O)[C@@H](N)Cc1ccc(O)cc1)[C@@H](C)O)[C@@H](C)O)[C@@H](C)CC)[C@@H](C)CC)C(=O)N[C@@H](CCC(=O)O)C(=O)NCC(=O)NCC(=O)N1CCC[C@H]1C(=O)N[C@@H](CO)C(=O)N[C@@H](CO)C(=O)NCC(=O)N[C@@H](C)C(=O)N1CCC[C@H]1C(=O)N1CCC[C@H]1C(=O)N1CCC[C@H]1C(=O)N[C@@H](CO)C(N)=O [Example 240] (H-Y[Aib]EGT[αMePhe(2-F)]TSD[4Pal]SI[αMeL]LD[Orn]K([AEEA-AEEA-γGlu-C18 diacid])AQ[Aib]AFI[dE][αMeY]LIEGGPSSGAPPPS-NH2) | 204 | 0.0393 | 0.552 | 0.0223 | 0.0284
CC[C@H](C)[C@H](NC(=O)[C@H](CC(C)C)NC(=O)[C@](C)(Cc1ccc(O)cc1)NC(=O)[C@@H](CCC(=O)O)NC(=O)[C@@H](NC(=O)[C@H](Cc1ccccc1)NC(=O)[C@@H](NC(=O)C(C)(C)NC(=O)[C@H](CCC(N)=O)NC(=O)[C@H](C)NC(=O)[C@H](CCCCNC(=O)COCCOCCNC(=O)COCCOCCNC(=O)CC[C@H](NC(=O)CCCCCCCCCCCCCCCCC(=O)O)C(=O)O)NC(=O)[C@H](CCCN)NC(=O)[C@H](CC(=O)O)NC(=O)[C@H](CC(C)C)NC(=O)[C@](C)(CC(C)C)NC(=O)[C@@H](NC(=O)[C@H](CO)NC(=O)[C@@H](NC(=O)[C@H](CC(=O)O)NC(=O)[C@H](CO)NC(=O)[C@@H](NC(=O)[C@](C)(Cc1ccccc1F)NC(=O)[C@@H](NC(=O)CNC(=O)[C@H](CCC(=O)O)NC(=O)C(C)(C)NC(=O)[C@@H](N)Cc1ccc(O)cc1)[C@@H](C)O)[C@@H](C)O)C(C)C)[C@@H](C)CC)[C@@H](C)O)[C@@H](C)CC)C(=O)N[C@@H](CCC(=O)O)C(=O)NCC(=O)NCC(=O)N1CCC[C@H]1C(=O)N[C@@H](CO)C(=O)N[C@@H](CO)C(=O)NCC(=O)N[C@@H](C)C(=O)N1CCC[C@H]1C(=O)N1CCC[C@H]1C(=O)N1CCC[C@H]1C(=O)N[C@@H](CO)C(N)=O [Example 241] (H-Y[Aib]EGT[αMePhe(2-F)]TSDVSI[αMeL]LD[Orn]K([AEEA-AEEA-γGlu-C18 diacid])AQ[Aib]TFI[dE][αMeY]LIEGGPSSGAPPPS-NH2; N-terminus assumed) | 167 | 0.0175 | 0.799 | 0.0257 | 0.042

Reference: patent US12252524B2, “GIP/GLP1 co-agonist compounds” (Eli Lilly and Company, priority 2018, dated 2025)
